Laboratory results taken from patent US6410704B1 (priority 1991, dated 2002).

Molecular target: herpes protease (HSV-1 UL26 product, Pra) (Human herpesvirus 1, UniProt P10210)
Type: biochemical

herpes protease (HSV-1 UL26 product, Pra), sequence (P10210 whole entry, looked up): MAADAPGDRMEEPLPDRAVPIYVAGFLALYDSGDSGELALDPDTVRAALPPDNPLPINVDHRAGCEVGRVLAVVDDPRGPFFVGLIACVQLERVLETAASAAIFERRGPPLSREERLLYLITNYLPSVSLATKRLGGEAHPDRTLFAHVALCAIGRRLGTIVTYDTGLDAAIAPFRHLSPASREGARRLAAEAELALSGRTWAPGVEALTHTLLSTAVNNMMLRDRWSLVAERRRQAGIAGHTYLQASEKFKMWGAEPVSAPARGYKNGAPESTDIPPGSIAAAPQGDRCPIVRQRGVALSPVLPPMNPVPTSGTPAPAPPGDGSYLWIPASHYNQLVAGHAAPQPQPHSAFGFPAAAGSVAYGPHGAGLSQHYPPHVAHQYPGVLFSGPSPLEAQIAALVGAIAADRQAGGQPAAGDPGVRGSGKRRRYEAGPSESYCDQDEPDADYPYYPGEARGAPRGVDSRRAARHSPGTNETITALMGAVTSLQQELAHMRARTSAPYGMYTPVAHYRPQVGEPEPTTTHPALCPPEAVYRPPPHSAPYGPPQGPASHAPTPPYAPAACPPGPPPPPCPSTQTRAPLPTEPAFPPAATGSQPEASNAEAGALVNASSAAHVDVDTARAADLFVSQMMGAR

| SMILES | inhibition of the protease self-cleavage | inhibition of the protease [%] |
| --- | --- | --- |
| O=S(=O)(F)Cc1ccccc1 [Phenylmethansulfonyl fluoride] | partially inhibiting | – |
| CCCCCCCCCCCCOS(=O)(=O)[O-].[Na+] [SDS, sodium dodecyl sulphate] | 100% | – |
| CC(C)C[C@H](NC(=O)[C@@H](NC(=O)N[C@@H](Cc1ccccc1)C(=O)O)[C@@H]1CCN=C(N)N1)C(=O)N[C@H](C=O)Cc1ccccc1 [chymostatin] | – | 100 |
